Measurements from patent US20240091203A1, “METHODS FOR TREATING NON-OBSTRUCTIVE HYPERTROPHIC CARDIOMYOPATHY” (Cytokinetics, Incorporated, priority 2022, published 2024).
“Also recorded” adds a separate entry of the source.

Key:
Assay type in all cases: in vivo, human
[1] = Phase 1 plasma pharmacokinetics, CYP2D6 poor metabolizer cohort; details: single 10 mg
Description: CYP2D6 poor metabolizer cohort.
CYP2D6 genotypes were determined at screening for all study participants; those identified as CYP2D6-PMs were excluded from the SAD and MAD cohorts but were invited to participate in the CYP2D6-PM cohort. The first individual in the CYP2D6-PM cohort was dosed after the SAD 25-mg cohort (FIG. 2). […] Nine participants were randomized (7:2) with a sentinel dosing group consisting of the first 2 participants treated.
Pharmacokinetic analyses. For all study groups, blood samples for PK assessment were obtained pre-dose, up to 12 times daily on day 1, and then at regular intervals throughout the study. Blood samples were collected according to the following schedule: SAD Cohorts: Day 1: pre-dose and 0.25, 0.5, 1, 1.5, 2, 2.5, 3, 4, 6, 8, 12, 16, 24, 36, 48, 72, 96, and 216 h post dose. MAD Cohorts (14-day Dosing): Day 1: pre-dose and 0.25, 0.5, 1, 1.5, 2, 2.5, 3, 4, 6, 8, and 12 h post dose; Days 2, 4, 5, 6, and 9: pre-dose (corresponding to trough samples following dosing on days 1, 3, 4, 5, and 8) and 1.5 h post dose; Days 3, 7, 8, 10, 11, 12, and 13: pre-dose (corresponding to trough samples following dosing on days 2, 6, 7, 9, 10, 11, and 12); Day 14: pre-dose and 0.25, 0.5, 1.5, 2, 2.5, 3, 4, 6, 8, 12, 16, 24, 36, 48, 72, and 168 h post dose. MAD Cohort (17-Day Dosing): Day 1: pre-dose and 0.25, 0.5, 1, 1.5, 2, 2.5, 3, 4, 6, 8, and 12 h post dose; Days 2, 4, 5, 6, and 9: pre-dose (corresponding to trough samples following dosing on days 1, 3, 4, 5, and 8) and 1.5 h post dose; Days 3, 7, 8, 10, 11, 12, 13, 14, 15, and 16: pre-dose (corresponding to trough samples following dosing on days 2, 6, 7, 9, 10, 11, and 12); Day 17: pre-dose and 0.25, 0.5, 1.5, 2, 2.5, 3, 5, 7, 9, 12, 24, 36, 48, 72, and 168 h post dose. CYPD6-PM Cohort: Day 1: pre-dose and 0.25, 0.5, 1, 1.5, 2, 2.5, 3, 4, 6, 8, 12, 16, 24, 36, 48, 72, 96, 216, 312, and 552 h post dose. Food-Effect Cohort: Day 1: pre-dose and 0.25, 0.5, 1, 1.5, 2, 2.5, 3, 4, 6, 8, 12, 16, 24, 36, 48, 72, 96, 144, and 216 h post dose. Standard non-compartmental methods were used to calculate PK parameters using Phoenix® WinNonlin® Version 7.0; actual sample collection times were utilized.

[2] = test system: patients with symptomatic non-obstructive HCM (nHCM) or HCM with MVO; assay: Phase 2 trial (Example 2): cardiac biomarkers NT-proBNP and hs-cTnI
Description: Echocardiograms obtained on day 1 of treatment, at weeks 2, 4, 6, and 10 of treatment, and two weeks after the last dose were analyzed for several key structural and physiologic metrics; measurements of N-terminal prohormone of brain natriuretic peptide (NT-proBNP), and cardiac troponin I were also monitored. Ambulatory cardiac monitoring was conducted one week before day 1 of treatment and at week 9.
The exploratory PD endpoints included but were not limited to: (i) The relationship of plasma concentration ranges of CK-3773274 to LVEF, LVFS, global longitudinal strain (GLS); (ii) Observed values and change from baseline in the echocardiography parameters described in Table 13 and evaluated by the core laboratory during treatment at Weeks 2, 4, 6, 10, and 12; (iii) Change in NT-proBNP from baseline to Week 10; (iv) Change in hs-cTnI from baseline to Week 10; (v) Proportion of patients with LVEF ≥50% and ≥50% reduction from baseline NT-proBNP.
For select PD measurements with statistical distributions likely to depart from normal, proportional change from baseline was evaluated.

[3] = test system: patients with symptomatic non-obstructive HCM (nHCM) or HCM with MVO; assay: Phase 2 trial (Example 2): patient-reported outcomes (KCCQ-CSS, SAQ-AF)
Excerpt: Health Status and Health-related Quality of Life: when available, patients completed patient-reported outcome (PRO) questionnaires prior to dosing at Day 1, at Week 6, at Week 10 and at Week 12. The following instruments were be used at these visits: by Short Form 36 physical function sub-scale (SF-36-PFS), Kansas City Cardiomyopathy Questionnaire Clinical Summary Score (KCCQ-CSS), SAQ7, PGI-C (Week 10 only), and CGI (Week 10 only).
The exploratory health status and health-related quality of life endpoints included but were not limited to change from baseline to Week 10 and a slope of change from baseline to Week 10 in: (i) T-scores for PROMIS Dyspnea Severity Short Form 10a, PROMIS Dyspnea Severity Short Form 10a with two additional items, PROMIS Fatigue Short Form 7a, and PROMIS Physical Function Short Form 8b; (ii) Norm-based T scores for SF-36 Physical Functioning subscale; (iii) Individual responses to the HCM Global Impression of Status questionnaire at baseline, Week 6, and Week 10; (iv) Individual responses to the HCM Global Impression of Change questionnaire at Week 6 and Week 10; (v) Change in KCCQ score from baseline to Week 10; and (vi) Change in SAQ7 score from baseline to Week 10.

[4] = CYP2D6 poor metabolizers, geometric mean, n = 7
[5] = CYP2D6 poor metabolizers, mean ± SD, n = 7
[6] = end of treatment (week 10), second interim

Structure (SMILES): CCc1nc(-c2ccc3c(c2)CC[C@H]3NC(=O)c2cnn(C)c2)no1 [aficamten, (R)—N-(5-(5-ethyl-1,2,4-oxadiazol-3-yl)-2,3-dihydro-1H-inden-1-yl)-1-methyl-1H-pyrazole-4-carboxamide]
- AUC24 [1, 4]: 495 ng·h/mL
- AUCinf [1, 4]: 2966 ng·h/mL
- Cmax [1, 4]: 57.3 ng/mL
- CL/F [1, 5]: 3.6 ± 1.4 L/h
- t1/2 [1, 5]: 110 h
- impact of CYP2D6-PM phenotype on pharmacokinetics ([1]; versus extensive metabolizers): Neither food nor CYP2D6-PM phenotype had a clinically meaningful impact; also recorded: did not appear to have reduced clearance
- symptoms, NT-proBNP and hs-Troponin I in patients with mid-ventricular obstruction (MVO) ([2]; 7 patients with MVO, second interim): All patients in this subgroup showed symptom improvement and reduction in both NT-proBNP and hs-Troponin I levels
- cardiac biomarkers (NT-proBNP, hs-cTnI) after washout ([2]; after the 2-week washout): rebounded upwards off drug
- reduction of NT-proBNP (geometric mean, proportional change from baseline) ([2]; end of treatment (week 10), interim, p<0.0001): 56%
- reduction of hs-cTnI (proportional to baseline) ([2]; end of treatment (week 10), interim, p<0.05): 21%
- mean (SE) reduction of NT-proBNP [2, 6]: -870 pg/mL
- mean (SE) reduction of hs-cTnI [2, 6]: -24.8 ng/L
- reduction of NT-proBNP ([2]; end of treatment (week 10), second interim, p<0.0001): 55%
- reduction of hs-cTnI ([2]; end of treatment (week 10), second interim, p<0.05): 21%
- patients improving KCCQ-CSS by ≥5 points ([3]; 21 patients, week 10, interim): 54%
- improvement in KCCQ-CSS, median (IQR) ([3]; from baseline median (IQR) 69.8 (56.8, 83.9), interim): 7.3 (−1.0, 18.8) points
- patients with clinical reduction in symptom burden (KCCQ-CSS) ([3]; week 10, second interim): 58%
- improvement in mean KCCQ-CSS ([3]; week 10, second interim, p<0.0001): 10.6 points
